Experimental data: the NIST ThermoML archive (doi:10.1016/j.fluid.2007.05.013)
± gives the expanded uncertainty stated by the source.

Conditions: Liquid; for mass density: 298.15 K, 101.33 kPa

Row | mass density | SMILES | further results
1 | 1059 ± 0.9 kg/m3 | C1COCO1 [1,3-dioxolane] | vapor or sublimation pressure (348.8 K): 101.33 ± 2 kPa
2 | 1027.9 ± 0.7 kg/m3 | C1COCCO1 [1,4-dioxane] | vapor or sublimation pressure (374.47 K): 101.33 ± 2 kPa
3 | 873.5 ± 1 kg/m3 | CCCCCCCl [1-chlorohexane] | vapor or sublimation pressure (408.07 K): 101.33 ± 2 kPa
4 | 882 ± 0.5 kg/m3 | C1CCOC1 [tetrahydrofuran] | vapor or sublimation pressure (339.12 K): 101.33 ± 2 kPa
5 | 878.8 ± 1 kg/m3 | C1CCOCC1 [tetrahydropyran] | vapor or sublimation pressure (361.23 K): 101.33 ± 2 kPa
